How the values were obtained:
4T1-luc2 tumors = test: In vivo NIR fluorescence imaging of subcutaneous 4T1 tumors in nude mice
Description: Female nude mice 6-8 weeks of age were injected with […] of 4T1 cells in 100 ul of PBS subcutaneously into the right flank. Once the tumors reached approximately 0.5 cm^3 in size, animals were injected with 20 nmol of the imaging probe XXI intravenously in 100 ul of PBS. Mice were then imaged at different time points using IVIS Spectrum instrument (Perkin Elmer) at recommended settings 745/810 nm excitation/emission (FIGS. 11-12).

mastocytoma tumor = test: Fluorescence image-guided surgery of mastocytoma tumor in dogs; assay type: in vivo, dog
Description: A kuvasz dog (male, 30 kg) diagnosed with mastocvtoma tumor on his right leg was used for image guided surgery study. All canine studies were performed at Veterinair Verwijscentrum Gouda, Netherlands. Canine was injected intravenous catheterization into the cephalic vein with fluorescence probe XXI (180 nmol/kg) 6h prior to surgery. Canine underwent to general anesthesia prior to surgery. Image guided cancer surgery was performed using Solaris Open-air Fluorescence Imaging System (Perkin Elmer), equipped with four fluorescent channels (470 nm, 660 nm, 750 nm and 800 nm) to obtain real-time visualization of tumor imaging in ambient light (FIGS. 13-15).
A labrador dog (male, 33 kg) diagnosed with mastocytoma tumor on his nose was used for image guided surgery study. All canine studies were performed at Veterinair Verwijscentrum Gouda, Netherlands. Canine was injected intravenous catheterization into the cephalic vein with fluorescence probe XXI (92 nmol/kg) 10 h prior to surgery. Canine underwent to general anesthesia prior to surgery. Image guided cancer surgery was performed using Solaris Open-air Fluorescence Imaging System (Perkin Elmer), equipped with four fluorescent channels (470 nm, 660 nm, 750 nm and 800 nm) to obtain real-time visualization of tumor imaging in ambient light (FIGS. 16-17).

[1] = cited from earlier work
[2] = in methanol, calibration standard; cited from earlier work
[3] = system: skin tissue of a nude mouse; test: Ex vivo cell death assay by cryogenic tissue damage (imaging necrosis); conditions: for fluorescence at the site of focal dry-ice treatment: cryogenic tissue damage, 1, 5, 10 uM dye, 10 min at room temperature
Text: Ex vivo cell death assay for compounds, VI and XIV were studied using a method of cryogenic tissue damage. […] After gentle washing with PBS, the samples were scanned for fluorescence using an IVIS Spectrum imaging system (FIG. 18-19).

[4] = 30 kg dog, 180 nmol/kg I.V., 6h after injection

CC1(C)C2=CC=CN(CCCCCC(=O)NCCCC[C@@H]3NC(=O)[C@@H](Cc4ccccc4)NC(=O)[C@H](CC(=O)O)NC(=O)CNC(=O)[C@H](CCCNC(=N)N)NC3=O)C2=N/C1=C/C=C1\C[N+](C)(C)CC(/C=C/C2=Nc3c(ccc[n+]3CCCCCC(=O)NCCCC[C@H]3NC(=O)[C@H](Cc4ccccc4)NC(=O)[C@@H](CC(=O)O)NC(=O)CNC(=O)[C@@H](CCCNC(=N)N)NC3=O)C2(C)C)=C1Oc1ccc(S(=O)(=O)O)cc1.[Na+] [Dye XXI]
time post injection of optimal background/noise ratio calculated from the region of interest (4T1-luc2 tumors; 4T1 tumour bearing mice): 2 h
tumor uptake (kinetics and specificity) (4T1-luc2 tumors; subcutaneous tumors in mice): faster and more specific tumor uptake
time post injection at which optimal background to noise ratio is achieved (4T1-luc2 tumors; subcutaneous tumors in mice, intravenous injection): 2 h
background uptake in normal tissue (mastocytoma tumor; [4]): negligible
identification of tumor by fluorescence in vivo (mastocytoma tumor; [4]): clearly identified
time post injection of highest accumulation in the tumor tissue (mastocytoma tumor; dogs): ≤ 6 h

CC1(C)C(/C=C/C=C/C=C/C=C2\N(CCCCS(=O)(=O)O)c3ccc4ccccc4c3C2(C)C)=[N+](CCCCS(=O)(=O)[O-])c2ccc3ccccc3c21 [ICG, Indocyanine Green]
solubility in saline [1]: not readily soluble
fluorescence quantum yield (QY) [2]: 7.8%

CC1(C)C2=CC=CN(CCCCCC(=O)O)C2=N/C1=C/C=C1\C[N+](C)(C)CC(/C=C/C2=Nc3c(ccc[n+]3CCCCCC(=O)O)C2(C)C)=C1Cl [Dye VI]
fluorescence signal from viable cells ([3]; cryogenic tissue damage): no signal
fluorescence at the site of focal dry-ice treatment [3]: strong fluorescence signal

CC1(C)C2=CC=CN(CCCCCC(=O)O)C2=N/C1=C/C=C1\C[N+](C)(C)CC(/C=C/C2=Nc3c(ccc[n+]3CCCCCC(=O)O)C2(C)C)=C1Oc1ccc(S(=O)(=O)O)cc1.[Na+] [Dye XIV]
fluorescence at the site of focal dry-ice treatment [3]: strong accumulation of fluorescence

From patent publication US20180079906A1, “AZACYANINE DYES AND USE THEREOF” (Ecole Polytechnique Fédérale de Lausanne (EPFL), priority 2016, published 2018)
